ChEMBL document CHEMBL4130493, “An insight into the biological activities of heterocyclic-fatty acid hybrid molecules” (Eur J Med Chem, 2017)
In brackets after ≈: the same amount, converted by molar mass.

Key:
Mycobacterium avium = assay: Antimycobacterial activity against Mycobacterium avium; type: functional
[1] = tested on: Mycobacterium tuberculosis; assay: Antimycobacterial activity against Mycobacterium tuberculosis H37Rv assessed as reduction in mycobacterial growth incubated for 5 days by MTT assay; type: functional; conditions: 120 h
HeLa = assay: Cytotoxicity in human HeLa cells incubated for 48 hrs by MTT assay; type: functional, cell-based
MCF7 = assay: Cytotoxicity in human MCF7 cells incubated for 48 hrs by MTT assay; type: functional, cell-based; conditions: MCF7, 48 h
Hep 3B2 = assay: Cytotoxicity in human Hep3B cells incubated for 48 hrs by MTT assay; type: functional, cell-based
Candida albicans [2] = assay: Antifungal activity against Candida albicans by disc diffusion method; type: functional
Candida albicans [3] = assay: Antifungal activity against Candida albicans IOA-109; type: functional
Escherichia coli [4] = assay: Antibacterial activity against Escherichia coli K-12 by disc diffusion method; type: functional
Salmonella typhimurium = assay: Antibacterial activity against Salmonella typhimurium MTCC98 by disc diffusion method; type: functional, Salmonella enterica subsp. enterica serovar Typhimurium
Staphylococcus aureus [5] = assay: Antibacterial activity against Staphylococcus aureus MSSA 22 by disc diffusion method; type: functional
Bacillus subtilis [6] = assay: Antibacterial activity against Bacillus subtilis ATCC 6051 by disc diffusion method; type: functional
Candida albicans [7] = assay: Antifungal activity against Candida albicans IOA-109 incubated for 18 to 48 hrs; type: functional
Escherichia coli [8] = assay: Antibacterial activity against Escherichia coli K-12 incubated for 24 hrs by filter paper disc method; type: functional
Staphylococcus aureus [9] = assay: Antibacterial activity against Staphylococcus aureus MSSA 22 incubated for 24 hrs by filter paper disc method; type: functional
Klebsiella pneumoniae = assay: Antibacterial activity against Klebsiella pneumoniae incubated for 24 hrs by filter paper disc method; type: functional
Bacillus subtilis [10] = assay: Antibacterial activity against Bacillus subtilis MTCC 121 incubated for 24 hrs by filter paper disc method; type: functional
[11] = tested on: Mycobacterium tuberculosis; assay: Antimycobacterial activity against Mycobacterium tuberculosis XDR-TB; type: functional
[12] = tested on: Mycobacterium tuberculosis; assay: Antimycobacterial activity against Mycobacterium tuberculosis MDR-TB; type: functional
Candida albicans [13] = assay: Antifungal activity against Candida albicans IOA-109 at 50 ug/disc incubated for 5 to 6 days by disc diffusion method; type: functional; conditions: read-out: DIZ
Staphylococcus aureus [14] = assay: Antibacterial activity against Staphylococcus aureus at 50 ug/disc incubated for 18 hrs by disc diffusion method; type: functional; conditions: read-out: DIZ

CCCCCCCCc1cn(CC(=O)OCC)nn1
MIC (Mycobacterium avium): 0.5 µg/mL (≈ 1.87 µM)
MIC [1]: 0.5 µg/mL (≈ 1.87 µM)

CCCC/C=C\CCC(O)CCCCCCC1=NNC2SCC(c3ccccc3)=NN12 (stereo not given)
IC50 (HeLa): 6 µM
IC50 (MCF7): 8.8 µM
IC50 (Hep 3B2): 7.36 µM

CCCCCC(O)/C=C\CCCCCCCc1ccc(CCCCCCC/C=C\C(O)CCCCC)o1 (stereo not given)
diameter of the inhibition zone (DIZ) (Candida albicans [2]): 27 mm

C=CCCCCCCCCc1nc2ccccc2s1
diameter of the inhibition zone (DIZ) (Candida albicans [3]): 16 - 20 mm

C=CCCCCCCCCC1=NNC2SCC(c3ccccc3)=NN12 (stereo not given)
IC50 (HeLa): 8.01 µM
IC50 (MCF7): 10.3 µM
IC50 (Hep 3B2): 7.4 µM

C=CCCCCCCCCc1nnc(N)o1
diameter of the inhibition zone (DIZ) (Escherichia coli [4]): 7 - 13 mm
diameter of the inhibition zone (DIZ) (Salmonella typhimurium): 7 - 13 mm
diameter of the inhibition zone (DIZ) (Staphylococcus aureus [5]): 7 - 13 mm
diameter of the inhibition zone (DIZ) (Bacillus subtilis [6]): 7 - 13 mm

CCCCC/C=C\CCC(O)CCCCCCCc1nc2ccccc2c(=O)o1 (stereo not given)
diameter of the inhibition zone (DIZ) (Candida albicans [7]): 17 - 20 mm
diameter of the inhibition zone (DIZ) (Escherichia coli [8]): 15 - 19 mm
diameter of the inhibition zone (DIZ) (Staphylococcus aureus [9]): 15 - 19 mm
diameter of the inhibition zone (DIZ) (Klebsiella pneumoniae): 15 - 19 mm
diameter of the inhibition zone (DIZ) (Bacillus subtilis [10]): 15 - 19 mm

CCCCCCCCNc1cncc(C(=O)Nc2ccccc2)n1
MIC [11]: 16 to 32 µM (≈ 5.22 to 10.4 µg/mL)
MIC [12]: 16 to 32 µM (≈ 5.22 to 10.4 µg/mL)

CCCCCCCC/C=C\CCCCCCCc1nc2ccccc2s1
diameter of the inhibition zone (DIZ) (Candida albicans [3]): 16 - 20 mm

CCCCCCC(O)C/C=C\CCCCCCCC1=NNC2SCC(c3ccccc3)=NN12 (stereo not given)
IC50 (HeLa): 8.83 µM
IC50 (MCF7): 8.59 µM
IC50 (Hep 3B2): 6.5 µM

CCCCCCCC/C=C\CCCCCCCC(=O)n1nnc2ccccc21
zone of inhibition at 50 µg/disc (Candida albicans [13]): 13 to 15 mm
zone of inhibition at 50 µg/disc (Staphylococcus aureus [14]): 13 to 15 mm

CCCCCCCCCCCCCCCc1ccc(CCCCCCCCCCCCCCC)o1
diameter of the inhibition zone (DIZ) (Candida albicans [2]): 27 mm

CCCCCCCCCCCCCCCc1nc2ccccc2s1
diameter of the inhibition zone (DIZ) (Candida albicans [3]): 16 - 20 mm

C=CCCCCCCCCC(=O)n1nnc2ccccc21
zone of inhibition at 50 µg/disc (Candida albicans [13]): 13 to 15 mm
zone of inhibition at 50 µg/disc (Staphylococcus aureus [14]): 13 to 15 mm

CCCCCCC(O)C/C=C\CCCCCCCc1nnc(N)o1 (stereo not given)
diameter of the inhibition zone (DIZ) (Escherichia coli [4]): 13 - 18 mm
diameter of the inhibition zone (DIZ) (Salmonella typhimurium): 13 - 18 mm
diameter of the inhibition zone (DIZ) (Staphylococcus aureus [5]): 13 - 18 mm
diameter of the inhibition zone (DIZ) (Bacillus subtilis [6]): 13 - 18 mm
